Data taken from US20240166626A1, “Compounds and Methods for Preventing, Treating, or Ameliorating Airway Disease” (THOMAS JEFFERSON UNIVERSITY, priority 2021, published 2024).

Tested on: HASM cells
Assay: Human airway smooth muscle cell scratch (migration) assay
Type: cell-based
Settings: 1 μM DFPQ, PDGF, 24 hours, FIG. 4F
Protocol: FIGS. 4A-4F: DFPQ inhibits internalization of the β2AR and protects from agonist induced desensitization in cell and tissue models. FIG. 4A: Effect of DFPQ on agonist-promoted internalization of the β2AR. HEK 293 cells stably expressing FLAG-β2AR were pre-incubated with 0.1% DMSO or 10 μM DFPQ for 30 min and then stimulated with the indicated concentrations of ISO for up to 60 min. Cells were fixed and receptor surface expression was measured by ELISA. […] Cells were lysed and cAMP production was measured by ELISA. […] FIG. 4C: Mouse airway tissue were contracted with 1 μM methacholine for 5 min and then incubated overnight with 1 μM ISO±1 μM DFPQ. Airway slices were washed, re-contracted with methacholine, and incubated with ISO for 1 hour (n=4 bronchioles). Airway contractility was measured by luminal area of bronchioles by microscopy at various times. FIG. 4D: Bar graphs represent normalized ISO-promoted relaxation from methacholine contraction on day 2 of treatment at the 25 min timepoint from 4 tracheal rings. *, p<0.05 FIG. 4E: HASM cells were scratched and incubated overnight in PDGF containing serum free media. Cells were imaged to evaluate migration into the scratched area. FIG. 4F: Densitometric analysis of migration into scratched area (n=3 experiments). ***, p<0.001; **, p<0.01
Cell culture GLOSENSOR™ cells (Promega) were maintained in Dulbecco's modified Eagle's medium (DMEM) containing 10% fetal bovine serum (FBS) and 200 μg/ml Hygromycin B. […]® ADRB2 cells (DiscoveRx) were maintained with the AssayComplete™ Cell Culture kit (DiscoveRx catalog #92-3107G). […] Cells were read every three minutes for 18 minutes on a PolarStar Optima plate reader (BMG) to establish peak signal. ISO was added to each well to a final concentration of 1 μM, and luminescence was determined in kinetic mode at room temperature (23-25° C.). Response was analyzed relative to forskolin (7 μM) and alprenolol (1 μM) as positive and negative controls, respectively. […] Luminescence was determined at room temperature (23-25° C.) on a PolarStar Optima plate reader (BMG). […]

Fc1ccc(Nc2nc(NC3CCCCC3)c3ccccc3n2)cc1F [DFPQ, N^4-cyclohexyl-N^2-(3,4-difluorophenyl)quinazoline-2,4-diamine]
effect on β-agonist (SAL or ISO) reduction of HASM migration: significantly enhanced
